The text below walks through data of ChEMBL document CHEMBL4765408, “Design and synthesis of benzylidenecyclohexenones as TrxR inhibitors displaying high anticancer activity and inducing ROS, apoptosis, and autophagy” (Eur J Med Chem, 2020).

Data set [1] is filed under the species Rattus norvegicus. Kind of data set: Inhibition of purified rat liver TrxR measured after 75 mins in presence of NADPH by DTNB based assay.
In data set [2] the test system is KB. The data set is described as follows: Antiproliferative activity against human KB cells after 72 hrs by sulforhodamine B assay. The data set is classed as functional, cell-based.
Data set [3] relates to MDA-MB-231. Kind of data set: Down regulation of TrxR1 expression in human MDA-MB-231 cells at 1.8 uM measured after 72 hrs by Western blot analysis. The data set is classed as functional, cell-based.
The test system of data set [4] is MDA-MB-231. Kind of data set: Induction of apoptosis in human MDA-MB-231 cells at 1.8 uM measured after 72 hrs by APC-Annexin V/7-AAD staining based flow cytometry relative to control. It counts as functional. (In flow cytometry, cells or beads pass a laser one at a time.)
Data set [5] relates to MDA-MB-231. Kind of data set: Antiproliferative activity against human MDA-MB-231 cells after 72 hrs by sulforhodamine B assay. The data set is classed as functional, cell-based. The settings on record: MDA-MB-231, 72 h. (Sulforhodamine B stains cellular protein and so reports cell mass.)
Data set [6] deals with MDA-MB-231. Kind of data set: Induction of autophagy in human MDA-MB-231 cells transfected with mRFP-eGFP-LC3 assessed as accumulation of autophagosomes by measuring increase in […] fluorescence at 1.8 uM measured after 24 hrs by confocal laser scanning microscopy. It counts as functional, cell-based.
For data set [7], the system named is MDA-MB-231. Kind of data set: Induction of apoptosis in human MDA-MB-231 cells assessed as activation of caspase-3 cleavage at 1.8 uM measured after 72 hrs by Western blot analysis. It counts as functional, cell-based. Background: Immunoblotting shows a protein as a band on a membrane.
For data set [8], the system named is MDA-MB-231. The data set is described as follows: Induction of autophagy in human MDA-MB-231 cells transfected with mRFP-eGFP-LC3 assessed as accumulation of autolysosome by measuring increase in red fluorescence at 1.8 uM measured after 24 hrs by confocal laser scanning microscopy. It counts as functional, cell-based.
Data set [9] deals with MCF7. The data set is described as follows: Antiproliferative activity against human MCF7 cells after 72 hrs by sulforhodamine B assay. The following applies: MCF7, 72 h. The data set is classed as functional, cell-based.
The nature of data set [10]: Antiproliferative activity against human KB-VIN cells after 72 hrs by sulforhodamine B assay. The data set is classed as functional, cell-based. The settings on record: KBVIN.
Data set [11] can be described thus: Inhibition of TrxR in human MDA-MB-231 cells measured after 72 hrs by colorimetric method. The data set is classed as cell-based.
Data set [12] concerns MDA-MB-231. The data set is described as follows: Antitumor activity against human MDA-MB-231 cells xenografted in BALB/c nude mouse assessed as reduction in tumor weight at 10 mg/kg, ip measured at 2 days interval for 21 days relative to control. Details: scale not given: the % may be the effect or the level left. The data set is classed as functional. The settings on record: time 2 day.

Data set [13] concerns MDA-MB-231. Kind of data set: Induction of autophagy in human MDA-MB-231 cells transfected with mRFP-eGFP-LC3 assessed as increase in LC3-II expression at 1.8 uM measured after 72 hrs by Western blot analysis. It counts as functional, cell-based.
Data set [14] relates to MDA-MB-231. Kind of data set: Induction of reactive oxygen species generation in human MDA-MB-231 cells measured after 24 hrs by DCFH-DA probe based flow cytometry. It counts as functional, cell-based.
Data set [15] concerns A549. Kind of data set: Antiproliferative activity against human A549 cells after 72 hrs by sulforhodamine B assay. The data set is classed as functional, cell-based. The settings on record: A549, 72 h.
Data set [16] has as its system MDA-MB-231. Kind of data set: Induction of autophagy in human MDA-MB-231 cells transfected with mRFP-eGFP-LC3 assessed as increase in LC3-II expression at 0.2 to 1.8 uM measured after 72 hrs by Western blot analysis. The following applies: dose 0.2-1.8 µM. It counts as functional, cell-based.
Data set [17] can be described thus: Acute toxicity in ICR mouse assessed as survival at 200 mg/kg, ip administered as single dose measured for 14 days. It counts as organism-based. The settings on record: in vivo, time 14 day, read-out: Activity.
The subject of data set [18] is MDA-MB-231. The data set is described as follows: Induction of apoptosis in human MDA-MB-231 cells assessed as reduction in Bcl-XL expression measured after 72 hrs by Western blot analysis. The data set is classed as functional, cell-based.
Data set [19] concerns MDA-MB-231. The data set is described as follows: Down regulation of TrxR1 expression in human MDA-MB-231 cells measured after 72 hrs by Western blot analysis. It counts as functional, cell-based.
Data set [20] has as its system MDA-MB-231. The data set is described as follows: Induction of apoptosis in human MDA-MB-231 cells at 0.2 uM measured after 72 hrs by APC-Annexin V/7-AAD staining based flow cytometry relative to control. The data set is classed as functional.
Data set [21] is described as follows: Acute toxicity in ICR mouse assessed as abnormality in drinking at 200 mg/kg, ip administered as single dose measured for 14 days. The data set is classed as organism-based. The settings on record: in vivo, 336 h, time 14 day.
Data set [22] has as its system MDA-MB-231. Kind of data set: Induction of autophagy in human MDA-MB-231 cells transfected with mRFP-eGFP-LC3 assessed as decrease in LC3-I expression at 0.2 to 1.8 uM measured after 72 hrs by Western blot analysis. It counts as functional, cell-based. The settings on record: dose 0.2-1.8 µM.
Data set [23] in a line: Acute toxicity in ICR mouse assessed as change in body weight at 200 mg/kg, ip administered as single dose measured for 14 days. The settings on record: in vivo, 336 h, time 14 day. It counts as organism-based.
The test system of data set [24] is MDA-MB-231. The data set is described as follows: Antitumor activity against human MDA-MB-231 cells xenografted in BALB/c nude mouse assessed as reduction in tumor volume at 10 to 25 mg/kg, ip measured at 2 days interval for 21 days. The following applies: dose 10-25 mg/kg, time 2.0 day. The data set is classed as functional, organism-based.
Data set [25] has as its system MDA-MB-231. Kind of data set: Induction of autophagy in human MDA-MB-231 cells transfected with mRFP-eGFP-LC3 assessed as decrease in p62 expression at 0.2 to 1.8 uM measured after 72 hrs by Western blot analysis. The data set is classed as functional, cell-based. The settings on record: dose 0.2-1.8 µM.
A short description of data set [26]: Acute toxicity in ICR mouse assessed as death at 200 mg/kg, ip administered as single dose measured for 14 days. It counts as organism-based. The settings on record: in vivo, 336 h, time 14 day.
Data set [27] concerns MDA-MB-231. Kind of data set: Induction of autophagy in human MDA-MB-231 cells transfected with mRFP-eGFP-LC3 assessed as accumulation of autolysosome by measuring increase in red fluorescence measured after 24 hrs by confocal laser scanning microscopy. It counts as functional, cell-based.
Data set [28] relates to MDA-MB-231. Kind of data set: Induction of apoptosis in human MDA-MB-231 cells assessed as reduction in Bcl-2 expression measured after 72 hrs by Western blot analysis. It counts as functional, cell-based.
A short description of data set [29]: Acute toxicity in ICR mouse assessed as survival at 488.3 mg/kg, ip administered as single dose measured for 14 days. The data set is classed as organism-based. The following applies: in vivo, time 14 day, read-out: Activity.
The test system of data set [30] is MDA-MB-231. The data set is described as follows: Induction of apoptosis in human MDA-MB-231 cells at 0.6 uM measured after 72 hrs by APC-Annexin V/7-AAD staining based flow cytometry relative to control. The data set is classed as functional.
Data set [31] is described as follows: Acute toxicity in ICR mouse assessed as survival at 390.6 mg/kg, ip administered as single dose measured for 14 days. It counts as organism-based. The following applies: in vivo, time 14 day, read-out: Activity.
The nature of data set [32]: Acute toxicity in ICR mouse assessed as survival at 250 mg/kg, ip administered as single dose measured for 14 days. The data set is classed as organism-based. The following applies: in vivo, time 14 day, read-out: Activity.
Data set [33] relates to MDA-MB-231. Kind of data set: Antitumor activity against human MDA-MB-231 cells xenografted in BALB/c nude mouse assessed as reduction in tumor weight at 25 mg/kg, ip measured at 2 days interval for 21 days relative to control. It counts as functional. On the set-up: scale not given: the % may be the effect or the level left. The following applies: time 2 day.
The nature of data set [34]: Acute toxicity in ip dosed ICR mouse administered as single dose measured for 14 days. It counts as organism-based. The following applies: in vivo, time 14 day.
The subject of data set [35] is MDA-MB-231. Kind of data set: Induction of apoptosis in human MDA-MB-231 cells assessed as activation of caspase-3 cleavage at 0.2 to 1.8 uM measured after 72 hrs by Western blot analysis. The following applies: dose 0.2-1.8 µM. The data set is classed as functional, cell-based.
A short description of data set [36]: Acute toxicity in ICR mouse assessed as abnormality in eating at 200 mg/kg, ip administered as single dose measured for 14 days. The data set is classed as organism-based. The following applies: in vivo, 336 h, time 14 day.
Data set [37] relates to MDA-MB-231. Kind of data set: Induction of autophagy in human MDA-MB-231 cells transfected with mRFP-eGFP-LC3 assessed as accumulation of autophagosomes by measuring increase in […] fluorescence measured after 24 hrs by confocal laser scanning microscopy. It counts as functional, cell-based.
A short description of data set [38]: Acute toxicity in ICR mouse assessed as survival at 312.5 mg/kg, ip administered as single dose measured for 14 days. The data set is classed as organism-based. The following applies: in vivo, time 14 day, read-out: Activity.

The source made the active and inactive calls. No cut-off for these calls is given here.

Take `COc1cc(/C=C/C(=O)N2CCC=CC2=O)cc(OC)c1OC` [PIPLARTINE]: the inhibition entry in [1] is “Active”. Moreover, the IC50 is 1.67 µM in data set [2]; 3.72 µM in [5]; 4.4 µM in data set [9]; 7.85 µM in data set [10]; 1.52 µM in data set [11]; 3.2 µM in data set [15]. Further, the outcome in data set [3], in data set [4], in data set [6], in data set [7], in data set [8] and in data set [13] was Active. Moreover, the result in data set [14] was Active. In addition, in data set [12], the Activity was found to be 44.9%.

Regarding `O=C1C=CCC/C1=C\c1ccc(OC(F)(F)F)cc1`, the outcome in data set [16], in [22], in [24], in data set [25], in data set [35] and in [14] was Active. For the same compound, the survival at 336 h in [17] amounted to 100%; in data set [29], 10%; in data set [31], 30%; in data set [32] it was 90%; in data set [38], 70%. For the same compound, the Activity entry in [18] was “Dose-dependent effect”; in data set [19], “Dose-dependent effect”; in data set [20], 20.7%; in data set [21] it was “Non-Toxic”; in [23] it was “Non-Toxic”; in [26], “Non-Toxic”. The Activity result was “Dose-dependent effect” in data set [27]; “Dose-dependent effect” in [28]; 45.6% in data set [30]; 56.8% in [4]; 63.3% in [33]; “Non-Toxic” in data set [36]. Further, the Activity entry in data set [37] was “Dose-dependent effect”. Moreover, in [1], the inhibition result was “Active”. In addition, the concentration for half-maximal inhibition (IC50) amounted to 0.53 µM in data set [2]; 0.59 µM in [5]; 1.04 µM in data set [9]; 0.84 µM in data set [10]; 0.12 µM in [11]; 0.44 µM in data set [15]. Also, the LD50 at 336 h in data set [34] turned out to be 366 mg/kg.

Usually IC50 stands for the concentration at which inhibition is half-maximal. As usually defined, the LD50 is the dose expected to kill half of the subjects tested.
